Source: patent publication US12514843B2, “Biofilm disruption” (QBIOTICS PTY LTD, priority 2019, dated 2026)

Columns and labels:
[1] = tested on: isolated human neutrophils; assay: LL-37 release from neutrophils, ELISA; format: cell-based; conditions: 3 hours after treatment, 62.5, 125, 250 and 500 μM
Protocol: For these assays, neutrophils were isolated from fresh blood of a healthy human donor by lysis of a red blood cell pellet that had been obtained by Ficoll-Paque sedimentation. The neutrophils (˜4×10^6 cells/mL) were incubated with 10 μg/mL dihydroethidium (DHE) (Sigma-Aldrich) in complete culture medium at 37° C. for 15 min alongside an aliquot of unstained cells to be tested as unstained control.
To examine antimicrobial peptide release by neutrophils in response to treatment with Compound 4, isolated neutrophils were incubated with either vehicle or Compound 4 at the four concentrations (62.5, 125, 250 and 500 μM). At 3 h, cell culture supernatants were removed and tested for LL-37 content using a LL-37-directed ELISA kit (Hycult Biotech). ELISA readings were normalised to vehicle only controls to determine fold increases in LL-37 release.

[2] = tested on: human adult epidermal keratinocytes (HEKa); assay: Microarray gene expression in keratinocytes in vitro; format: cell-based; conditions: 170 nM
Protocol: (§1) In addition to disrupting the structure of biofilms comprising Gram-negative bacteria, effects of epoxytiglienones on regulation of genes involved in host response to bacterial infection were investigated in microarray studies with human adult epidermal keratinocytes (HEKa) and human adult dermal fibroblasts (HDF) in vitro.
(§2) For these studies, HEKa were cultured in EpiLife® Medium supplemented with Supplement S7 (both from Life Technologies, Carlsbad, CA, USA), while HDF were cultured in Medium 106 supplemented with LSGS (Low Serum Growth Supplement) (both from Life Technologies). Cells where then treated with vehicle or 170 nM Compound 4 for 0, 0.5, 1, 2, 4, 8, 24, 48 and 72 hours. RNA was extracted using a Qiagen RNeasy mini kit and biotinylated using an Illumina TotalPrep RNA Amplification Kit (Ambion, Austin, TX, USA). Labelled RNA was hybridised to HumanHT-12 v4 BeadChip Arrays (Illumina Inc, San Diego, CA, USA) and scanned according to standard Illumina protocols. Data were extracted in GenomeStudio (Illumina) using default analysis settings and no normalisation method. Resulting data were imported into GeneSpring GX (Agilent, Santa Clara, CA, USA. Expression values were normalised using quantile normalisation with default settings.

[3] = tested on: chronic biofilm infection; assay: Diabetic murine model of chronic biofilm infection (excisional wound); format: in vivo, db/db diabetic mice; conditions: 0.3 mg/mL in hydrogel, topical at 24 h, 8 and 15 days; assessed day 21 to 28 post wounding; 7 mice
Text: The effects of administration of Compound 4 on biofilm infection in vivo was studied in a diabetic murine model of chronic biofilm infection (Zhao et al. 2010). In this study we used methods described by Dhall et al. (2014) in which bacterial biofilm infections develop spontaneously following wound creation.
Briefly, db/db diabetic mice (>6 months old) were housed for 4-5 weeks in non-sterile conditions prior to the creation of wound on the back of each mouse with a 6 mm diameter excisional punch biopsy. Mice were then administered a catalase inhibitor intra-peritoneally (1 g/kg aminotriazole) and a glutathione peroxidase (GPx) inhibitor topically around the edge of the wound site (1 g/kg mercaptosuccinic acid) prior to dressing with Tegaderm. After 24 h, biofilms were evident at the wound site on all mice. The mice where divided into two groups (7 mice per group) and treated with either Compound 4 (0.3 mg/mL in a hydrogel vehicle) or a Control treatment (hydrogel vehicle only). The Tegaderm dressing was the then replaced. Two further administrations of Compound 4 or the Control (vehicle only) were performed at 8 and 15 days. No antibiotics or other antibacterial treatments were applied during the study.
The presence of biofilm and the surface area of the wound were assessed over the course of the study. […]

[4] = tested on: A. baumannii 7789 biofilm; assay: Disruption of established in vitro biofilm, CLSM with COMSTAT image analysis; format: cell-based, Acinetobacter baumannii; conditions: 256 μg/mL
Protocol: Biofilms of E. coli IR57 were grown on 96-well glass-bottomed plates in Mueller-Hinton (MH) broth for 24 h, before 50% of the supernatant was replaced with fresh MH broth with or without the epoxytiglienone compound added to a final concentration of 256 μg/mL (vehicle is ethanol). An ethanol equivalent blank was used as a further control treatment. The plates were then incubated for a further 24 h at 37° C.
Confocal laser scanning microscopy (CLSM) was then used to image the biofilms, following staining with Live/Dead® Baclight stain with phosphate buffered saline (PBS) added to each well before imaging with z-stack CLSM. The resultant images were analysed by COMSTAT software to produce measurements of (i) biofilm biomass volume or bio-volume (μm^3/μm^2) and (ii) DEAD/LIVE bacterial ratio.
The effects of the epoxytiglienones (Compounds 1, 4, 6 and the comparator compound CC-1) on disruption of established in vitro biofilms were further investigated with two other species of Gram-negative bacteria (Pseudomonas aeruginosa PA01 and Acinetobacter baumannii 7789) using methods described in Example 2 above. Cell permeabilisation following Compound 1, 4 and 6 treatment was also determined using SYTOX™ Green Nucleic Acid Stain with untreated control and positive control of 70% isopropanol.

E. coli IR57 biofilm = assay: Multiple particle tracking (MPT) of 200 nm FluoSpheres in established biofilm; format: cell-based, Escherichia coli
Protocol: The effect of three epoxytiglienones (Compounds 1, 4 and 6) on the assembly and permeability of established biofilms of E. coli was assessed using multiple particle tracking (MPT). MPT is a recently described technique, allowing simultaneous tracking of micron-size particles through biofilms using microscopy, from which the diffusion-based parameters of embedded particles within the extracellular polymeric matrix (EPS) of the biofilm can be determined (Cao et al. 2016). MPT measurements also allows for calculation of micro-rheological properties of the biofilm structure following treatment with test compounds.
E. coli biofilms were established and epoxytiglienone and control treatments applied as described in Example 2 above. Twenty-four hours after application of the treatments, the biofilms were stained with SYTO9® and 0.0025% of negatively-charged, carboxylate-modified FluoSpheres® (200 nm) added onto the biofilms and incubated for a further 2 hours. FluoSphere® particle movements within the biofilms were then captured on video using epifluorescence microscopy with a high frame-rate camera (33 ms). Particle trajectories were tracked using ImageJ softwaren (Mosaic) before calculation of three parameters of the 200 nm FluoSphere® particles: (i) ensemble diffusion coefficient (Deff), (ii) ensemble mean squared displacement (MSD) and (iii) creep compliance (a measure of resistance to mechanical deformation derived from the MSD vs lag time). Each treatment was replicated three times.

[5] = tested on: human adult dermal fibroblasts (HDF); assay: Microarray gene expression in fibroblasts in vitro; format: cell-based; conditions: 170 nM, within 2 to 4 hours
Protocol: as §1, §2

Q: How did the “Release of LL-37 from neutrophils” value [1] turn out when CCCCCC(=O)OC1C(C)C2(O)C(C3OC3(CO)C(O)C3(O)C(=O)C(C)=CC32)C2C(C)(C)C12OC(=O)CCCCC (stereo not shown) [Compound 4, 12,13-dihexanoyl-6,7-epoxy-4,5,9,12,13,20-hexahydroxy-1-tiglien-3-one] was run?
A: The value was “increased in a concentration dependent manner”.

Q: And the “production of host defence peptides (DEFB2, DEFB3, DEFB4, RNASE7)” value ([2]; from 8 to 72 hours post treatment)?
A: The value was “significantly upregulated”.

Q: And the “expression of chemokines/cytokines involved in PMNL recruitment (IL8, CXCL1)” value ([2]; within 2 to 4 hours)?
A: Its value is “significant upregulation”.

Q: And the “mice with complete wound healing (complete re-epithelialisation, resolution of inflammation, absence of bacteria within the dermis)” value [3]?
A: Its value is 6 of the 7.

Q: What about the DEAD/LIVE bacterial ratio ([4]; vs untreated and ethanol blank controls) of the same molecule?
A: Its DEAD/LIVE bacterial ratio is “no significant differences”.

Q: What about the “biofilm bio-volume (COMSTAT)” value ([4]; vs untreated and ethanol blank controls (p<0.05)) of the same molecule?
A: The value was “significant reductions”.

Q: What about the “Diffusion coefficient (Deff) ± standard deviation” value (E. coli IR57 biofilm; 200 nm negatively-charged carboxylate-modified FluoSpheres in E. coli IR57 biofilms, 256 μg/mL, 24 h treatment) of the same molecule?
A: The value was 0.8449 ± 0.1250 cm^2 · s^−1 × 10^−9.

Q: What about the “mean squared displacement (MSD) of FluoSphere particles” value (E. coli IR57 biofilm; E. coli IR57 biofilm, 200 nm FluoSpheres, vs untreated and ethanol blank controls) of the same molecule?
A: The value was “substantially higher”.

Q: What about the biofilm creep compliance (E. coli IR57 biofilm; E. coli IR57 biofilm, derived from MSD vs lag time, vs untreated and ethanol blank controls) of the same molecule?
A: The biofilm creep compliance was “increased”.

Q: What about the “expression of chemokines/cytokines involved in PMNL recruitment (IL8, CXCL1)” value [5] of the same molecule?
A: The value was “significant upregulation”.
